The supplement of paper PMC11451515

Columns and labels:
Settings in all cases: 48 h
NOMO1 [1] = assay: AUC of viability dose-response curve (% viability x log10 dose units); higher = less sensitive
Summary of the method: (§1)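 Library compounds in DMSO were applied for 48 h at 37°C at 11 threefold doses (47 μM to 0.79 nM) to medium-adapted leukemia cells in 1536-well plates holding 500 or 1000 cells/well. Luminescence from CellTiter-Glo One was normalised plate by plate against DMSO and cell-free wells. Area under the curve came from trapezoidal integration of a log-logistic fit, after scaling curves that rose above full viability and discarding those that failed quality control. The fit had four parameters and used log10 doses.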

P12-Ichikawa [2] = assay: as above
Summary of the method: as §1

SEM cells [3] = assay: as above
Summary of the method: as §1

NOMO1 [4] = assay: cell viability relative to DMSO control; higher = less cytotoxic
Summary of the method: (§2)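 NOMO1, SEM and P12-Ichikawa leukemia cells spent at least four passages adapting to each medium before use. They were seeded at 500 cells/well (NOMO1, SEM) or 1000 cells/well (P12-Ichikawa) in 5 μl in 1536-well plates and pin-dosed with library compounds in DMSO at 11 threefold steps from 47 μM down to 0.79 nM. After 48 h at 37°C, CellTiter-Glo One luminescence was read. Viability is reported as a percentage of the DMSO wells on each plate, with cell-free wells as background.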

P12-Ichikawa [5] = assay: as above
Summary of the method: as §2

SEM cells [6] = assay: as above
Summary of the method: as §2

[7] = RPMI 5 mM glucose + 10% dialyzed FBS
[8] = HPLM + 10% dialyzed FBS, 0.000781 µM
[9] = HPLM + 10% dialyzed FBS, 0.00234 µM
[10] = HPLM + 10% dialyzed FBS, 0.00702 µM
[11] = HPLM + 10% dialyzed FBS, 0.0211 µM
[12] = HPLM + 10% dialyzed FBS, 0.0632 µM
[13] = HPLM + 10% dialyzed FBS, 0.19 µM
[14] = HPLM + 10% dialyzed FBS, 0.569 µM
[15] = HPLM + 10% dialyzed FBS, 1.71 µM
[16] = HPLM + 10% dialyzed FBS, 5.12 µM
[17] = HPLM + 10% dialyzed FBS, 15.4 µM
[18] = HPLM + 10% dialyzed FBS, 46.1 µM
[19] = RPMI 5 mM glucose + 10% FBS, 0.000781 µM
[20] = RPMI 5 mM glucose + 10% FBS, 0.00234 µM
[21] = RPMI 5 mM glucose + 10% FBS, 0.00702 µM
[22] = RPMI 5 mM glucose + 10% FBS, 0.0211 µM
[23] = RPMI 5 mM glucose + 10% FBS, 0.0632 µM
[24] = RPMI 5 mM glucose + 10% FBS, 0.19 µM
[25] = RPMI 5 mM glucose + 10% FBS, 0.569 µM
[26] = RPMI 5 mM glucose + 10% FBS, 1.71 µM
[27] = RPMI 5 mM glucose + 10% FBS, 5.12 µM
[28] = RPMI 5 mM glucose + 10% FBS, 15.4 µM
[29] = RPMI 5 mM glucose + 10% FBS, 46.1 µM
[30] = RPMI 5 mM glucose + 10% dialyzed FBS, 0.000781 µM
[31] = RPMI 5 mM glucose + 10% dialyzed FBS, 0.00234 µM
[32] = RPMI 5 mM glucose + 10% dialyzed FBS, 0.00702 µM
[33] = RPMI 5 mM glucose + 10% dialyzed FBS, 0.0211 µM
[34] = RPMI 5 mM glucose + 10% dialyzed FBS, 0.0632 µM
[35] = RPMI 5 mM glucose + 10% dialyzed FBS, 0.19 µM
[36] = RPMI 5 mM glucose + 10% dialyzed FBS, 0.569 µM
[37] = RPMI 5 mM glucose + 10% dialyzed FBS, 1.71 µM
[38] = RPMI 5 mM glucose + 10% dialyzed FBS, 5.12 µM
[39] = RPMI 5 mM glucose + 10% dialyzed FBS, 15.4 µM
[40] = RPMI 5 mM glucose + 10% dialyzed FBS, 46.1 µM

## CC(C(=O)O)c1ccc(-c2ccccc2)c(F)c1 (stereo unspecified)
NOMO1 [1]; HPLM + 10% dialyzed FBS
  AUC of viability dose-response curve: 464
NOMO1 [1]; RPMI 5 mM glucose + 10% FBS
  AUC of viability dose-response curve: 476
NOMO1 [1]; [7]
  AUC of viability dose-response curve: 459
P12-Ichikawa [2]; HPLM + 10% dialyzed FBS
  AUC of viability dose-response curve: 424
P12-Ichikawa [2]; RPMI 5 mM glucose + 10% FBS
  AUC of viability dose-response curve: 432
P12-Ichikawa [2]; [7]
  AUC of viability dose-response curve: 424
SEM cells [3]; HPLM + 10% dialyzed FBS
  AUC of viability dose-response curve: 442
SEM cells [3]; RPMI 5 mM glucose + 10% FBS
  AUC of viability dose-response curve: 417
SEM cells [3]; [7]
  AUC of viability dose-response curve: 447

## O=P1(NCCCl)OCCCN1CCCl (stereo unspecified)
NOMO1 [4]; [8]
  cell viability: 90.5%
NOMO1 [4]; [9]
  cell viability: 102%
NOMO1 [4]; [10]
  cell viability: 96.8%
NOMO1 [4]; [11]
  cell viability: 104%
NOMO1 [4]; [12]
  cell viability: 97.7%
NOMO1 [4]; [13]
  cell viability: 84.6%
NOMO1 [4]; [14]
  cell viability: 119%
NOMO1 [4]; [15]
  cell viability: 117%
NOMO1 [4]; [16]
  cell viability: 99.7%
NOMO1 [4]; [17]
  cell viability: 109%
NOMO1 [4]; [18]
  cell viability: 76.1%
NOMO1 [4]; [19]
  cell viability: 82.3%
NOMO1 [4]; [20]
  cell viability: 88%
NOMO1 [4]; [21]
  cell viability: 79.4%
NOMO1 [4]; [22]
  cell viability: 77.2%
NOMO1 [4]; [23]
  cell viability: 77%
NOMO1 [4]; [24]
  cell viability: 89.2%
NOMO1 [4]; [25]
  cell viability: 83.5%
NOMO1 [4]; [26]
  cell viability: 86.8%
NOMO1 [4]; [27]
  cell viability: 91.1%
NOMO1 [4]; [28]
  cell viability: 76.8%
NOMO1 [4]; [29]
  cell viability: 79.4%
NOMO1 [4]; [30]
  cell viability: 86.9%
NOMO1 [4]; [31]
  cell viability: 87.6%
NOMO1 [4]; [32]
  cell viability: 81.1%
NOMO1 [4]; [33]
  cell viability: 85.3%
NOMO1 [4]; [34]
  cell viability: 85.6%
NOMO1 [4]; [35]
  cell viability: 87.9%
NOMO1 [4]; [36]
  cell viability: 87.4%
NOMO1 [4]; [37]
  cell viability: 97.5%
NOMO1 [4]; [38]
  cell viability: 84.6%
NOMO1 [4]; [39]
  cell viability: 98.5%
NOMO1 [4]; [40]
  cell viability: 78.1%
P12-Ichikawa [5]; [8]
  cell viability: 84%
P12-Ichikawa [5]; [9]
  cell viability: 94%
P12-Ichikawa [5]; [10]
  cell viability: 88.4%
P12-Ichikawa [5]; [11]
  cell viability: 91.6%
P12-Ichikawa [5]; [12]
  cell viability: 92.9%
P12-Ichikawa [5]; [13]
  cell viability: 88.1%
P12-Ichikawa [5]; [14]
  cell viability: 95.1%
P12-Ichikawa [5]; [15]
  cell viability: 93.9%
P12-Ichikawa [5]; [16]
  cell viability: 91.8%
P12-Ichikawa [5]; [17]
  cell viability: 62.5%
P12-Ichikawa [5]; [18]
  cell viability: 94.2%
P12-Ichikawa [5]; [19]
  cell viability: 82.8%
P12-Ichikawa [5]; [20]
  cell viability: 76.7%
P12-Ichikawa [5]; [21]
  cell viability: 81.5%
P12-Ichikawa [5]; [22]
  cell viability: 85.6%
P12-Ichikawa [5]; [23]
  cell viability: 88.8%
P12-Ichikawa [5]; [24]
  cell viability: 86.7%
P12-Ichikawa [5]; [25]
  cell viability: 87.9%
P12-Ichikawa [5]; [26]
  cell viability: 86.1%
P12-Ichikawa [5]; [27]
  cell viability: 92%
P12-Ichikawa [5]; [28]
  cell viability: 93.2%
P12-Ichikawa [5]; [29]
  cell viability: 66.7%
P12-Ichikawa [5]; [30]
  cell viability: 77%
P12-Ichikawa [5]; [31]
  cell viability: 77.2%
P12-Ichikawa [5]; [32]
  cell viability: 75.3%
P12-Ichikawa [5]; [33]
  cell viability: 78.1%
P12-Ichikawa [5]; [34]
  cell viability: 84.8%
P12-Ichikawa [5]; [35]
  cell viability: 82.7%
P12-Ichikawa [5]; [36]
  cell viability: 85.9%
P12-Ichikawa [5]; [37]
  cell viability: 85.2%
P12-Ichikawa [5]; [38]
  cell viability: 87.2%
P12-Ichikawa [5]; [39]
  cell viability: 87%
P12-Ichikawa [5]; [40]
  cell viability: 79.8%
SEM cells [6]; [8]
  cell viability: 88.9%
SEM cells [6]; [9]
  cell viability: 85.6%
SEM cells [6]; [10]
  cell viability: 92.8%
SEM cells [6]; [11]
  cell viability: 101%
SEM cells [6]; [12]
  cell viability: 76.1%
SEM cells [6]; [13]
  cell viability: 81.2%
SEM cells [6]; [14]
  cell viability: 78%
SEM cells [6]; [15]
  cell viability: 84.7%
SEM cells [6]; [16]
  cell viability: 81.3%
SEM cells [6]; [17]
  cell viability: 63%
SEM cells [6]; [18]
  cell viability: 12.5%
SEM cells [6]; [19]
  cell viability: 92.6%
SEM cells [6]; [20]
  cell viability: 99.5%
SEM cells [6]; [21]
  cell viability: 101%
SEM cells [6]; [22]
  cell viability: 103%
SEM cells [6]; [23]
  cell viability: 96.8%
SEM cells [6]; [24]
  cell viability: 94.4%
SEM cells [6]; [25]
  cell viability: 97.1%
SEM cells [6]; [26]
  cell viability: 94.2%
SEM cells [6]; [27]
  cell viability: 105%
SEM cells [6]; [28]
  cell viability: 57.3%
SEM cells [6]; [29]
  cell viability: 7.96%
SEM cells [6]; [30]
  cell viability: 87.6%
SEM cells [6]; [31]
  cell viability: 86%
SEM cells [6]; [32]
  cell viability: 94.8%
SEM cells [6]; [33]
  cell viability: 81.9%
SEM cells [6]; [34]
  cell viability: 65.5%
SEM cells [6]; [35]
  cell viability: 69.1%
SEM cells [6]; [36]
  cell viability: 60.6%
SEM cells [6]; [37]
  cell viability: 69.5%
SEM cells [6]; [38]
  cell viability: 66.4%
SEM cells [6]; [39]
  cell viability: 45%
SEM cells [6]; [40]
  cell viability: 10.8%
P12-Ichikawa [2]; HPLM + 10% dialyzed FBS
  AUC of viability dose-response curve: 424
P12-Ichikawa [2]; RPMI 5 mM glucose + 10% FBS
  AUC of viability dose-response curve: 402
P12-Ichikawa [2]; [7]
  AUC of viability dose-response curve: 391
